Data on four compounds can be found in patent US9241991B2, “Agents, compositions, and methods for treating pruritus and related skin conditions” (The Brigham and Women's Hospital, Inc., priority 2010, dated 2016).

One test deals with DRG neurons. Briefly: Calcium imaging from cultured DRG neurons. The test is classed as cell-based. The settings on record: wild-type mice DRG neurons. On the procedure:
DRGs from all spinal levels of 4-week old mice were collected in cold DH10 (90% DMEM/F-12, 10% FBS, 100 U/ml penicillin, and 100 μg/ml Streptomycin, Gibco) and treated with enzyme solution (5 mg/ml Dispase, 1 mg/ml Collagenase Type I in HPBS without Ca^++ and Mg^++, Gibco) at 37° C. Following trituration and centrifugation, cells were resuspended in DH10, plated on glass cover slips coated with poly-D-lysine (0.5 mg/ml, Stoughton, Mass.) and laminin (10 μg/ml, Invitrogen), cultured in an incubator ([…] and 5% CO2) at 37° C. and used within 24 hours. Neurons were loaded with Fura 2-acetomethoxy ester (Molecular Probes) for 30 min in the dark at room temperature. After washing, cells were imaged at 340 and 380 nm excitation to detect intracellular free calcium. To compare the response to histamine, chloroquine, and capsaicin between WT and Tlr3-deficient DRG neurons, calcium imaging assays were performed with an experimenter blind to genotype (n=3 per genotype), and the percentages of DRG neurons showing calcium responses were determined as we previously described (23).

The subject of test [1] is TLR7. Briefly: Scratches after intradermal injection in the nape of the neck, WT and Tlr7-/- mice. The test is classed as in vivo. The settings on record: for dose response curve of scratching: intradermal injection, nape. From the text:
We next evaluated whether TLR7 plays a role in itch sensation. We counted the number of scratches (bouts) by a hindpaw of mouse following intradermal injection of pruritogenic agents in the nape of the neck.

A further test has as its target TRPV1 (Mus musculus, UniProt Q704Y3). In words: Resiniferatoxin pretreatment: heat sensitivity, imiquimod-induced scratches, TLR7+ skin fibers. More on the design: central terminals of TRPV1-expressing nociceptors; from tissue; host or cells: mouse lumbar spinal cord slices (L4-L5); live mice (intrathecal capsaicin, resiniferatoxin pretreatment). The test is classed as in vivo, mice. From the text:
C-fibers, express transient receptor potential subtype V1 (TRPV1) and are indispensable for itch sensation by various pruritogens (Imamachi, N. et al. Proc. Natl. Acad. Sci. U.S. A 106, 11330-11335 (2009)). […] Thus, TRPV1-expressing C-fibers but not TRPV1 per se are required for imiquimod-elicited itch. We also tested itch responses in mast cell-deficient SASH mice (Liu, Q. et al. Cell 139, 1353-1365 (2009)) and only found a moderate reduction (28%) in imiquimod-induced scratching (FIG. 12c).

The target of test [2] is T1, TLR7 (Mus musculus, UniProt P58681).
T1 construct: We found functional TLR7 receptors in small-size DRG neurons; from tissue; host or cells: small DRG neurons of mice; nape and cheek skin of live mice (C57BL/6J background, CD1)
T1 sequence (P58681 27-1050): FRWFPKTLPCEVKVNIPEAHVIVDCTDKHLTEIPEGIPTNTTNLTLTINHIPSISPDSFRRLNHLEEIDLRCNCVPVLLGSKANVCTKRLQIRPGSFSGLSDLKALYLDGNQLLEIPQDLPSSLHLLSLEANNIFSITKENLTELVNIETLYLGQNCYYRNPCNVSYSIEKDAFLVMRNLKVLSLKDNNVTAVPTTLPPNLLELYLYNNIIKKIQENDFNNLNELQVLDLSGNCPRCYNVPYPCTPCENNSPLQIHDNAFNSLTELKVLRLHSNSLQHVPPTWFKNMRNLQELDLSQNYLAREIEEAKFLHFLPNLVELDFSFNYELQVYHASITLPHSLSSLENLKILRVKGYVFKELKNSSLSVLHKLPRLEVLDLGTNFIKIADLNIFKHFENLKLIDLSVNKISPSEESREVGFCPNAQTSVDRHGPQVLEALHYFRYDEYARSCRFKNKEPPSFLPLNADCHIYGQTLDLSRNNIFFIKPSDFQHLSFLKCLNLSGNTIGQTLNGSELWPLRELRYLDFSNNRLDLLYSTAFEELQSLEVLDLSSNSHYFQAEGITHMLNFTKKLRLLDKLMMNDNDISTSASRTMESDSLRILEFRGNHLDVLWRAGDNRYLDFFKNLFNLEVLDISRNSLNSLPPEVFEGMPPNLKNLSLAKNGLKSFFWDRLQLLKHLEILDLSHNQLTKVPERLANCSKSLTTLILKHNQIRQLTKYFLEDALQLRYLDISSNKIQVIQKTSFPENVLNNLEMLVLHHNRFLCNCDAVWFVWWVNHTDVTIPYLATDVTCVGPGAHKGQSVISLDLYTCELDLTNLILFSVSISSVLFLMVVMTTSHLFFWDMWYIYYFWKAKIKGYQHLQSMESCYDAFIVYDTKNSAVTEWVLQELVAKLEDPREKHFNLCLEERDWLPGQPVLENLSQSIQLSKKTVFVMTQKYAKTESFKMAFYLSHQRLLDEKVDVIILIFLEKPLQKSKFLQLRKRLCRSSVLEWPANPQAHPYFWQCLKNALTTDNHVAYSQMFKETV
In words: Cheek model of itch versus pain, TLR7 ligands. The test is classed as in vivo, mice. The following applies: 20 μg intradermal into the cheek. On the procedure:
To distinguish itch and pain responses simultaneously, we used the cheek model by injection of chemical into cheek of mice (8). After brief anesthesia with isoflurane, we shaved mice on cheeks (approx. 5×8 mm area) two days before experiments. On the day of experiment, we injected 10 μl of reagent (50 μg compound 48/80 or 100 μg chloroquine) into the cheek and counted the number of wipes and the number of scratches for 30 min. We only counted those unilateral wipes with the forelimb that were not part of grooming behavior. One scratch was defined as a lifting of the hind paw toward the injection site on the cheek and then returning the paw to the floor or to the mouth.
To further investigate a unique role of TLR7 in itch versus pain, we used a recently developed “cheek model” of itch (Shimada, S. G. & LaMotte, R. H. Pain 139, 681-687 (2008)).

Each structure is given as a SMILES string.

Sequence of TRPV1 (Q704Y3 whole entry): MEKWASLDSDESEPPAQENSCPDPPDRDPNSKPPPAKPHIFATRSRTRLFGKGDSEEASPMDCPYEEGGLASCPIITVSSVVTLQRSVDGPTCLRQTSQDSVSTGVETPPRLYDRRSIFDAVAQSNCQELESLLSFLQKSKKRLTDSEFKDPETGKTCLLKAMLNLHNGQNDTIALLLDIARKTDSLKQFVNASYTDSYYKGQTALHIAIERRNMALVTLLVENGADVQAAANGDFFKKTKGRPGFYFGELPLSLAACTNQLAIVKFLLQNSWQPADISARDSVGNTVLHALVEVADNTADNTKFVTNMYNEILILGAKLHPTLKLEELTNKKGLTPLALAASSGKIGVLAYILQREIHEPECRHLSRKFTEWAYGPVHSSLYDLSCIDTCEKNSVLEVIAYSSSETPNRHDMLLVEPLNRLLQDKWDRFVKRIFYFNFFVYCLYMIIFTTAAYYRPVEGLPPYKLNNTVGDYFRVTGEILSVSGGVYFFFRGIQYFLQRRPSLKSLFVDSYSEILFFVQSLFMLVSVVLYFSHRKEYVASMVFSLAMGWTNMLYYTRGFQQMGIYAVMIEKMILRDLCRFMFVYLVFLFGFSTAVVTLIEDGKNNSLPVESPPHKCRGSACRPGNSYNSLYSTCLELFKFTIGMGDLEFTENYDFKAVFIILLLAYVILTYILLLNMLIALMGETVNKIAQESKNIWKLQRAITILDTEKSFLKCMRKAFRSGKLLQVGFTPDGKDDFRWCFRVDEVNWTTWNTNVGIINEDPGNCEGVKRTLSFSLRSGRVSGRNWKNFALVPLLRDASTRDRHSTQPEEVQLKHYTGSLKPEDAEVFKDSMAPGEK

In the case of `CCN(CC)CCCC(C)Nc1ccnc2cc(Cl)ccc12` (centres unmarked) [chloroquine], the “neurons with intracellular Ca2+ increases” value with DRG neurons worked out at 5%. Also, the “TLR7 dependence of scratching at the highest dose” value in the test on TLR7 [1] (600 μg) was “TLR7-independent”. Also, the “dose response curve of scratching” value in the test with TLR7 [1] is “bell-shaped dose response curve”.

With `NCCc1c[nH]cn1` [histamine], the “neurons with intracellular Ca2+ increases” value with DRG neurons was found to be 10%.

On to `C=C(C)[C@]12C[C@@H](C)[C@@]34O[C@](Cc5ccccc5)(O[C@@H]1[C@@H]3C=C(COC(=O)Cc1ccc(O)c(OC)c1)C[C@]1(O)C(=O)C(C)=C[C@@H]41)O2` [RTX, resiniferatoxin], for which, at TRPV1 (RTX pretreatment), the “heat sensitivity after pretreatment” value is recorded as “loss of heat sensitivity” and the “imiquimod-induced scratches after pretreatment” value was “almost abolished”. The “TLR7+ fibers in the skin” value on TRPV1 (RTX treatment) is given as “ablated”.

As to `C=CCn1c(=O)n([C@@H]2O[C@H](CO)[C@@H](O)[C@H]2O)c2nc(N)[nH]c(=O)c21` [loxoribine], the “dose response curve of scratching” value with TLR7 [1] is “inverted-U-shaped dose response curve”. Besides, in the test with TLR7 [1] (intradermal, 100 μg), the “scratches in Tlr7-/- mice versus WT” value was “reduced”. Besides, on TLR7 [2], the “itch-like scratching in cheek model” value is recorded as “elicited itch-like scratching” and the “pain-indicative wiping in cheek model” value is “not pain-indicative wiping behavior”.
